Drawing on ChEMBL document CHEMBL1149806, “Synthesis and antiproliferative activities of isoindigo and azaisoindigo derivatives” (Eur J Med Chem, 2008), this text covers inhibition and IC50 for three molecules.

In experiment [1] the test system is KB. In words: Antiproliferative activity against human KB cells at 0.25 nM after 72 hrs by MTS test. The class given is functional.
A further experiment relates to HL-60. The experiment can be described thus: Antiproliferative activity against human HL60 cells at 10 uM after 72 hrs by MTS test. The class given is functional. Conditions: HL-60, 72 h.
A further experiment concerns K562. In words: Antiproliferative activity against human K562 cells at 10 uM after 72 hrs by MTS test. The class given is functional. The following applies: K562, 72 h.
Experiment [2] relates to KB. The experiment can be described thus: Antiproliferative activity against human KB cells at 10 uM after 72 hrs by MTS test. The class given is functional.
Experiment [3] has as its system KB. The experiment can be described thus: Antiproliferative activity against human KB cells after 72 hrs by MTS test. The class given is functional, cell-based.

In turn, `CC(=O)O[C@@]12CO[C@@H]1C[C@H](O)[C@@]1(C)C(=O)[C@H](O)C3=C(C)[C@@H](OC(=O)[C@H](O)[C@@H](NC(=O)OC(C)(C)C)c4ccccc4)C[C@@](O)([C@@H](OC(=O)c4ccccc4)[C@H]21)C3(C)C` [DOCETAXEL] showed an inhibition at 0.00025 µM with KB [1] of 71%. The inhibition at 10 µM with HL-60 was determined as 46%; in the experiment on K562, 32%.

In the case of `O=C1Nc2ccccc2/C1=C1\C(=O)Nc2ccccc21` [ISOINDIGO], the inhibition at 10 µM in the experiment on KB [2] came to 92%; in the experiment on HL-60, 53%; in the experiment on K562 it was 64%. Also, in the experiment on KB [3], half-maximal inhibition (IC50) required 1.6 µM.

For the molecule `CC(=O)OC[C@H]1O[C@@H](N2C(=O)/C(=C3/C(=O)Nc4ccc(OC(F)(F)F)cc43)c3ccccc32)[C@H](OC(C)=O)[C@@H](OC(C)=O)[C@@H]1OC(C)=O`, the inhibition at 10 µM was found to be 0% in the experiment with KB [2], 4% with HL-60 and 3% with K562.
